# Reference: patent US20260224588A1, “BENZODIAZEPINONE-DERIVED INHIBITORS OF EGFR AND HER2” (The Research Foundation for the State University of New York, priority 2023, published 2026)
# Legend:
# [1] = biological target: T1, ABL1(F317I)-phosphorylated (Homo sapiens, UniProt P00519, F317I); assay: KINOMEscan; format: binding; settings: 1 μM of compound 4; read-out: POC
# T1 construct: purchased Eurofins DiscoverX Corporation
# [2] = biological target: AMPK-alpha1 (Homo sapiens, UniProt Q13131); assay: KINOMEscan; format: binding; settings: 1 μM of compound 4; read-out: POC
# [3] = biological target: ASK1 (Homo sapiens, UniProt Q99683); assay: KINOMEscan; format: binding; settings: 1 μM of compound 4; read-out: POC
# [4] = biological target: BIKE (Homo sapiens, UniProt Q9NSY1); assay: KINOMEscan; format: binding; settings: 1 μM of compound 4; read-out: POC
# [5] = biological target: BLK (Homo sapiens, UniProt P51451); assay: KINOMEscan; format: binding; settings: 1 μM of compound 4; read-out: POC
# [6] = biological target: BMPR1A (Homo sapiens, UniProt P36894); assay: KINOMEscan; format: binding; settings: 1 μM of compound 4; read-out: POC
# [7] = biological target: CSNK1G1 (Homo sapiens, UniProt Q9HCP0); assay: KINOMEscan; format: binding; settings: 1 μM of compound 4; read-out: POC
# [8] = biological target: CSNK1G2 (Homo sapiens, UniProt P78368); assay: KINOMEscan; format: binding; settings: 1 μM of compound 4; read-out: POC
# [9] = biological target: DCAMKL1 (Homo sapiens, UniProt O15075); assay: KINOMEscan; format: binding; settings: 1 μM of compound 4; read-out: POC
# [10] = biological target: DMPK2 (Homo sapiens, UniProt Q6DT37); assay: KINOMEscan; format: binding; settings: 1 μM of compound 4; read-out: POC
# [11] = biological target: T2, ERBB4 (Homo sapiens, UniProt Q15303); assay: KINOMEscan; format: binding; settings: 1 μM of compound 4; read-out: POC
# T2 construct: purchased Eurofins DiscoverX Corporation
# [12] = biological target: T3, FLT3 (Homo sapiens, UniProt P36888); assay: KINOMEscan; format: binding; settings: 1 μM of compound 4; read-out: POC
# T3 construct: purchased Eurofins DiscoverX Corporation
# [13] = biological target: JAK2(JH1domain-catalytic) (Homo sapiens, UniProt O60674); assay: KINOMEscan; format: binding; settings: 1 μM of compound 4; read-out: POC
# [14] = biological target: JAK3(JH1domain-catalytic) (Homo sapiens, UniProt P52333); assay: KINOMEscan; format: binding; settings: 1 μM of compound 4; read-out: POC
# [15] = biological target: LRRK2 (Homo sapiens, UniProt Q5S007); assay: KINOMEscan; format: binding; settings: 1 μM of compound 4; read-out: POC
# [16] = biological target: MAP4K5 (Homo sapiens, UniProt Q9Y4K4); assay: KINOMEscan; format: binding; settings: 1 μM of compound 4; read-out: POC
# [17] = biological target: MERTK (Homo sapiens, UniProt Q12866); assay: KINOMEscan; format: binding; settings: 1 μM of compound 4; read-out: POC
# [18] = biological target: MET(M1250T) (Homo sapiens, UniProt P08581, M1250T); assay: KINOMEscan; format: binding; settings: 1 μM of compound 4; read-out: POC
# [19] = biological target: PHKG1 (Homo sapiens, UniProt Q16816); assay: KINOMEscan; format: binding; settings: 1 μM of compound 4; read-out: POC
# [20] = biological target: T4, SIK2 (Homo sapiens, UniProt Q9H0K1); assay: KINOMEscan; format: binding; settings: 1 μM of compound 4; read-out: POC
# T4 construct: purchased Eurofins DiscoverX (KINOMEscan service)
# [21] = biological target: T5, TLK2 (Homo sapiens, UniProt Q86UE8); assay: KINOMEscan; format: binding; settings: 1 μM of compound 4; read-out: POC
# T5 construct: purchased Eurofins DiscoverX Corporation
# [22] = biological target: T6, WEE2 (Homo sapiens, UniProt P0C1S8); assay: KINOMEscan; format: binding; settings: 1 μM of compound 4; read-out: POC
# T6 construct: purchased Eurofins DiscoverX
# [23] = biological target: EGFR(L858R) (Homo sapiens, UniProt P00533, L858R); assay: Time-dependent kinase inhibition assay (Sox-based substrate); format: biochemical; parameters: EGFR [L858R], cytoplasmic domain (669-1210), GST-tagged, Carna; purchased Carna 08-510
# Procedure: Time-dependent Kinase Inhibition Assays. Biochemical assays were performed with commercially available EGFR WT, cytoplasmic domain (669-1210), GST-tagged, Carna (Cat #/Lot #: 08-115/21CBS-0127H), EGFR [T790M/L858R] and EGFR [L858R], cytoplasmic domain (669-1210), GST-tagged, Carna (Cat #/Lot #: 08-510/12CBS-0765M). […] BSA was not included in this experiment to prevent interference with irreversible inhibitor characterization via off-target binding. All reactions were run for 240 minutes at 30° C. Time-dependent fluorescence from the Sox-based substrate was monitored in PerkinElmer ProxiPlate-384 Plus, white shallow well microplates (Cat. #6008280) Biotek Synergy Neo 2 microplate reader with excitation (360 nm) and emission (485 nm) wavelengths. 2 was dosed between 0 and 10 μM in 24-point curves with 1.5-fold dilutions. Fluorescence, determined with identical reactions but lacking purified enzyme or crude cell lysate was subtracted from the total fluorescence signal for each time point, with both determined in duplicate, to obtain corrected relative fluorescence units (RFU). Corrected RFU values then were plotted vs. time and the reaction velocity for the first ~40 min (initial reaction rates) were determined from the slope using GraphPad Prism (La Jolla, CA) with units of RFU/min.
# Sequence of EGFR(L858R) (P00533 669-1210 L858R): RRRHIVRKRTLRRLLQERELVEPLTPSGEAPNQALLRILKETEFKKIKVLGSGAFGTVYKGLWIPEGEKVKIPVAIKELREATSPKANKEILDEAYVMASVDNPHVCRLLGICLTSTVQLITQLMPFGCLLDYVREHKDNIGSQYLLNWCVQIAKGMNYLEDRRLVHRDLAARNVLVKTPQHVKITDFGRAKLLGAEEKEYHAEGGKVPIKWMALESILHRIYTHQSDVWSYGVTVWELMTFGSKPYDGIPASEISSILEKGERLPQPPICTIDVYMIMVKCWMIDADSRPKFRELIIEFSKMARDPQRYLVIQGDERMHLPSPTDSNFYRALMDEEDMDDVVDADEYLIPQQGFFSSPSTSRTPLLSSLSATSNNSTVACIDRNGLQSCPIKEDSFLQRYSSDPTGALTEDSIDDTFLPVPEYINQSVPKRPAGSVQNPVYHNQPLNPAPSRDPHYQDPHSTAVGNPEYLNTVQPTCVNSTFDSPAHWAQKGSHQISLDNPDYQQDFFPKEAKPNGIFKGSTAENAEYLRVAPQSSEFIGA
# T2 sequence (Q15303 26-1308): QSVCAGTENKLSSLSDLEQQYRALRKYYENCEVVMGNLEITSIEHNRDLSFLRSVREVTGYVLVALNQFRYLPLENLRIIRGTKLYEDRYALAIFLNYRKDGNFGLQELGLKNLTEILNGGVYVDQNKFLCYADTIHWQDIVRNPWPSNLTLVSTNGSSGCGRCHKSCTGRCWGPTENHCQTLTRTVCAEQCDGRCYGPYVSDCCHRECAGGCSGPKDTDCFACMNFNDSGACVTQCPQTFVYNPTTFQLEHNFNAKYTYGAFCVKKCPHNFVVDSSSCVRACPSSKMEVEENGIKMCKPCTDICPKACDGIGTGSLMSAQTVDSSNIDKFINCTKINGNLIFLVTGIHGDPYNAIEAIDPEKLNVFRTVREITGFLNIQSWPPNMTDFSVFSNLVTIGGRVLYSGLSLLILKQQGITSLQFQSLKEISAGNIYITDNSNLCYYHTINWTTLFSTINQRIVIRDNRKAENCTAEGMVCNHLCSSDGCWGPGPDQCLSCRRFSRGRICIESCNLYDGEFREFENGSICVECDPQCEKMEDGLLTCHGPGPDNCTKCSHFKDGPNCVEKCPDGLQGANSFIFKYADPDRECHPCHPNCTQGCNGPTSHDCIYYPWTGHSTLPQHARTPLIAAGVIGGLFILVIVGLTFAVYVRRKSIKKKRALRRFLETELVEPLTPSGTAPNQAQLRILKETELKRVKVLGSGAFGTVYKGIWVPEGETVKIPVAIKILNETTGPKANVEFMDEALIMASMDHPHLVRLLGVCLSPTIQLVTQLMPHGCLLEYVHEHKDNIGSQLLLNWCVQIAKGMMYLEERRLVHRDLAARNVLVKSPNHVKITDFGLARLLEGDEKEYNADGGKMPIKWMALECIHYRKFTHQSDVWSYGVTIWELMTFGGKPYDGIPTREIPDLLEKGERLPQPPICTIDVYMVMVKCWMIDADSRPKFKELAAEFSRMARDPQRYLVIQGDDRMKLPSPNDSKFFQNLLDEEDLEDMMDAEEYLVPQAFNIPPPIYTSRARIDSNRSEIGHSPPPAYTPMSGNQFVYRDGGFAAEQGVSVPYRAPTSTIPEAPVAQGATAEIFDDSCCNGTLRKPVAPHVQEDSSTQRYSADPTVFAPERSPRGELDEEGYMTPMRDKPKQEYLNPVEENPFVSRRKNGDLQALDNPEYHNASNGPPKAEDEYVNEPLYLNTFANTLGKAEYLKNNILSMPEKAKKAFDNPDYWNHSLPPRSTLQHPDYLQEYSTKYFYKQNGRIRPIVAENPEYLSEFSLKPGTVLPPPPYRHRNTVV
# T4 sequence (Q9H0K1 whole entry): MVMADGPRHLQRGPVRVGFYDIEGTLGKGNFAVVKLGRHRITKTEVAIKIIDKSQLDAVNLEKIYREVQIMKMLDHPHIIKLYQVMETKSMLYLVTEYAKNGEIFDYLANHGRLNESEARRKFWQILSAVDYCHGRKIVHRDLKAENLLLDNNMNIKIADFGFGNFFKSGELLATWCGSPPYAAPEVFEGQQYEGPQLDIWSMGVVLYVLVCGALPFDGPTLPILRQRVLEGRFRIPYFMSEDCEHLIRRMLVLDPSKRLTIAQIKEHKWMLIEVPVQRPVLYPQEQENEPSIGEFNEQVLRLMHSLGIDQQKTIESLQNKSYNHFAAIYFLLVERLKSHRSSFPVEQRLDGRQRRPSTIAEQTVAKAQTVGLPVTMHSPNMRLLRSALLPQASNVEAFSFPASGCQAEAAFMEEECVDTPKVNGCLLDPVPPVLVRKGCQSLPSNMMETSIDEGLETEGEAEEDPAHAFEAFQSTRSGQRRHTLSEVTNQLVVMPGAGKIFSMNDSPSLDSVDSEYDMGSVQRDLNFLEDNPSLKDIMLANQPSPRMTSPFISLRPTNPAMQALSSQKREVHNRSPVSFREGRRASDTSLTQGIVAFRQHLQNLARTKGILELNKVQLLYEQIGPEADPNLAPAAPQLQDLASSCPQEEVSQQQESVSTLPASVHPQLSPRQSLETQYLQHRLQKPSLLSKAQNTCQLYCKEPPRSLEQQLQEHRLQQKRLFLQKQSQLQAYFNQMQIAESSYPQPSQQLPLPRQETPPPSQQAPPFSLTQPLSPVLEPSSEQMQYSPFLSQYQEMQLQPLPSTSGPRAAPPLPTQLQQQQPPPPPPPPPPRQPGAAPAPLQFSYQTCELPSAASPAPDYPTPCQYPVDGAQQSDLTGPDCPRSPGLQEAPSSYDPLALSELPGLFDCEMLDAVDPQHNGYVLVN
# Sequence of ASK1 (Q99683 whole entry): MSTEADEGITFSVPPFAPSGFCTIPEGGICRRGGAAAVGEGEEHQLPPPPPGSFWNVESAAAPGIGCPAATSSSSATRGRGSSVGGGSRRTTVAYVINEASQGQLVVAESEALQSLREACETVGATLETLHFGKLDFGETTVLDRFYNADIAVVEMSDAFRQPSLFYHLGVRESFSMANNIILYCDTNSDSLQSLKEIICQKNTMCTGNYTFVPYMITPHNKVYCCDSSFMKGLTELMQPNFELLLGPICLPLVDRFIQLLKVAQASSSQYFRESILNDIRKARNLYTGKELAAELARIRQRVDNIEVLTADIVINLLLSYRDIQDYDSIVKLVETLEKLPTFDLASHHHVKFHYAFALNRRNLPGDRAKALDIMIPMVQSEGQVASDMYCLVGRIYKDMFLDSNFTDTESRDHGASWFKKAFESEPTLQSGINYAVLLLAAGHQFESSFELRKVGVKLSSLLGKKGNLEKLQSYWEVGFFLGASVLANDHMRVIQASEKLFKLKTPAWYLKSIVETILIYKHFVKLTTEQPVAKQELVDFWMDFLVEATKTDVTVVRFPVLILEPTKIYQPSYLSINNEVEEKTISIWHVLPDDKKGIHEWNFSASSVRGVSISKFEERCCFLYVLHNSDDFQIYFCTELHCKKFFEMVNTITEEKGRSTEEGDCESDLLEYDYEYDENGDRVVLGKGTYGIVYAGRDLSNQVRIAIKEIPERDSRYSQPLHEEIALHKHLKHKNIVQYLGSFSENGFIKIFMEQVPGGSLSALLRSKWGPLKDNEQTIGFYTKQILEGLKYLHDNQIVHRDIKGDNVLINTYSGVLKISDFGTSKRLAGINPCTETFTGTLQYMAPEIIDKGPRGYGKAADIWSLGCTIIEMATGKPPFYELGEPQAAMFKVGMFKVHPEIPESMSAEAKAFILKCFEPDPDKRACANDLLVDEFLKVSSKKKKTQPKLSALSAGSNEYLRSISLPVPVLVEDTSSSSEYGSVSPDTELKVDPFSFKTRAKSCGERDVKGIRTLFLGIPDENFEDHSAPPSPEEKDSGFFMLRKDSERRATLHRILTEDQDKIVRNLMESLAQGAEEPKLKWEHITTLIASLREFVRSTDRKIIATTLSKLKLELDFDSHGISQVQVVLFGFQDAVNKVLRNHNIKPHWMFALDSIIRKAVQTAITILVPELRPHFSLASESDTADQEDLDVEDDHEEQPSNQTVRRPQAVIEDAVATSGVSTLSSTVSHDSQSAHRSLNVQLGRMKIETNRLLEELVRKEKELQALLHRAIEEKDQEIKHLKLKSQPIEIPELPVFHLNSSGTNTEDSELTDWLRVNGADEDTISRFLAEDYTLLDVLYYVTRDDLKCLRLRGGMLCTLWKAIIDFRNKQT
# Sequence of MAP4K5 (Q9Y4K4 whole entry): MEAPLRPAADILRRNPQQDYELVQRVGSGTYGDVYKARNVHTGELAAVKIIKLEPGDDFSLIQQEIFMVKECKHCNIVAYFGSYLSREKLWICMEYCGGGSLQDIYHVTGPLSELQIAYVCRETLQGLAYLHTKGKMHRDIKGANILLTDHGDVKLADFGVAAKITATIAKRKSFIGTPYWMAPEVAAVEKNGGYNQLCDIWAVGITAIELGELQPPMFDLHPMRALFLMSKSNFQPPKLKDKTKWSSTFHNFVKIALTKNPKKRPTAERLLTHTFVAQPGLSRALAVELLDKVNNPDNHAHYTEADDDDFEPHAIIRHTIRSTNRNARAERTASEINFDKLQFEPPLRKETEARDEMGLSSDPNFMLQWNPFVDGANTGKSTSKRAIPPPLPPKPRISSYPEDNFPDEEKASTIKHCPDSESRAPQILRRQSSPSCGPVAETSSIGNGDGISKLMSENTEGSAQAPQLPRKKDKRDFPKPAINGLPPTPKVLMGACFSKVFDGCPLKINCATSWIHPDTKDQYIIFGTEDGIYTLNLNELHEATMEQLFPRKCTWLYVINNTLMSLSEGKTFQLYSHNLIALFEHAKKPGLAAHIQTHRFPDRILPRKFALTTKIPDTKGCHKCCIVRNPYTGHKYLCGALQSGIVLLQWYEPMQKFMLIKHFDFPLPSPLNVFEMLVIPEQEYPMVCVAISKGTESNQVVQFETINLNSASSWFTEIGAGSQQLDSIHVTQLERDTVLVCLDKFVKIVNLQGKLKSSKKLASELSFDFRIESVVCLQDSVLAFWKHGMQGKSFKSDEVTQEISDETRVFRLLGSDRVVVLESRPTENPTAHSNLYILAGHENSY
structure (smiles),measurement,setting,value
"C=CC(=O)Nc1ccc(OC)c(Nc2cc(-c3[nH]c(CC)nc3-c3cccc(NC(=O)c4cccc5c4NC(=O)c4ccccc4N5)c3)ccn2)c1 [Compound 4, N-(3-(5-(2-((5-Acrylamido-2-methoxyphenyl)amino)pyridin-4-yl)-2-ethyl-1H-imidazol-4-yl)phenyl)-11-oxo-10,11-dihydro-5H-dibenzo[b,e][1,4]diazepine-9-carboxamide]",remaining binding at 1 µM,[1],84%
same,remaining binding at 1 µM,[2],81%
same,remaining binding at 1 µM,[3],100%
same,remaining binding at 1 µM,[4],100%
same,remaining binding at 1 µM,[5],1.7%
same,remaining binding at 1 µM,[6],85%
same,remaining binding at 1 µM,[7],93%
same,remaining binding at 1 µM,[8],91%
same,remaining binding at 1 µM,[9],100%
same,remaining binding at 1 µM,[10],0%
same,remaining binding at 1 µM,[11],4.9%
same,remaining binding at 1 µM,[12],100%
same,remaining binding at 1 µM,[13],86%
same,remaining binding at 1 µM,[14],100%
same,remaining binding at 1 µM,[15],93%
same,remaining binding at 1 µM,[16],2.5%
same,remaining binding at 1 µM,[17],83%
same,remaining binding at 1 µM,[18],89%
same,remaining binding at 1 µM,[19],96%
same,remaining binding at 1 µM,[20],100%
same,remaining binding at 1 µM,[21],87%
same,remaining binding at 1 µM,[22],98%
same,kinact,[23],0.00867 s⁻¹
same,Ki,"[23]; read-out: KI, LR",610 ± 30 nM
same,kinact/KI,"[23]; read-out: kinact/KI, LR",14100 ± 300 M⁻¹ s⁻¹
